The results in this text go back to patent publication US4102886A, “Process for the preparation of benzo(a)quinolizidine derivatives” (priority 1974, dated 1978).

The subject of data set [1] is experimentally provoked fever. The data set is described as follows: Antipyretic activity (experimentally provoked fever). The class given is in vivo. Also on record: unit not given here. The note with it: 25 mg./kg. p.o. The source says: Besides their antiphlogistic activities, some of the benzo(a)quinolizidine derivatives exert antipyretic effects as well. On the basis of the tests performed on experimentally provoked fever, the antipyretic activities of the compounds according to the invention surpass the effect of amidazophenum.

A short description of data set [2]: Acute toxicity tests. The class given is in vivo. The note with it: rat, in vivo, po; rats, Litchfield-Wildoxon method. Here is the method: The acute toxicity values of the compounds were determined on rats, after oral administration. The LD50 values were calculated according to the Litchfield-Wildoxon method.
In data set [3] the test system is central nervious system. The data set is described as follows: Narcosis potentiating effect. The class given is in vivo.
The nature of data set [4]: Determination of ulcer index.
In data set [5] the test system is carrageenin-induced oedema. The data set is described as follows: Inhibition of carrageenin-induced oedema. In kind it is in vivo. Conditions: 1.5 hours. As to the method: (§1) Inhibition of Kaolin- and carrageenin-induced oedema
(§2) The tests were carried out on groups each consisting of at least 10 animals. The percentage inhibition of oedema, in relation to the untreated controls, was determined for each of the animals, and the average values were calculated.

Data set [6] has as its system kaolin-induced oedema. Briefly: Inhibition of kaolin-induced oedema. In kind it is in vivo. Conditions: 2 hours. As to the method:
as §1, §2

The subject of data set [7] is Cotton granuloma. Briefly: Cotton granuloma test. The note with it: 100 mg./kg. The class given is in vivo.
The nature of data set [8]: Inhibition of carrageenin-induced oedema. The note with it: in vivo; LD50/ED50; read-out: Therapeutical index LD50/ED50, carrageenin-oedema. The class given is in vivo. As to the method:
as §1, §2

Data set [9] is described as follows: Inhibition of kaolin-induced oedema. The class given is in vivo. Conditions: in vivo; LD50/ED50; read-out: Therapeutical index LD50/ED50, kaolin-oedema. As to the method: as §1, §2
The subject of data set [10] is serotonine-induced oedema. Briefly: Tests performed on serotonine-induced oedema. In kind it is in vivo. As to the method:
Tests performed on serotonine-induced oedema
The tests were carried out on groups each consisting of 10 animals. The percentage inhibition of oedema, in relation to the untreated controls, was determined for each of the animals. The data listed in Table 3 are the averages of the inhibition values.

Data set [11] in a line: Analgesic effect by the hot-plate test. In kind it is in vivo. The note with it: 50 mg./kg. p.o.

`Cc1c(N(C)C)c(=O)n(-c2ccccc2)n1C` [Amidazophenum]: the “Variation of body temperature” value in data set [1] (1 hour after administration) was -1.17; in data set [1] (2 hours after administration), -0.94; in [1] (3 hours after administration), -0.95.
`CC(=O)Oc1ccccc1C(=O)O` [Aspirin, reference compound] displayed an LD50 in [2] of 1700 mg/kg.
As for `CCCC(C)(COC(N)=O)COC(N)=O` [Meprobamate, reference compound], the “Prolongation of the sleep period in relation to the untreated controls, %” value (“Prolongation of the sleep period in relation … %” below) in data set [3] (20 mg./kg. p.o.) stood at 110.2%.
`O=C(O)c1ccccc1O` [Na-salicylate, reference compound]: in [4] (female), the Erosion is 3/10 and the Ulcer is on record as 2/10. Further, in data set [4] (male), the Erosion is 1/10 and the Ulcer is 4/10. The “Inhibition of carrageenin-induced oedema 1.5 hours after administration” value in data set [5] (100 mg./kg. p.o.) is reported as 16.2%. Moreover, the “Inhibition of kaolin-induced oedema 2 hours after administration” value in data set [6] (100 mg./kg. p.o.) is reported as 10.5%. The “Effect, % (cotton granuloma test)” value in [7] was determined as 25.5%.
Regarding `COc1cc2c(cc1OC)C1CC(=O)C(CCC#N)CN1CC2` (stereo not drawn) [SCT-1, 2-Oxo-3-(β-cyano-ethyl)-9,10-dimethoxy-1,2,3,4,6,7-hexahydro-11bH-benzo(a)quinolizidine], the Erosion was 4/10 in [4] (female) and 3/10 in data set [4] (male). Further, the Ulcer in data set [4] (female) is recorded as 2/10; in [4] (male), 1/10. Besides, the “Inhibition of carrageenin-induced oedema 1.5 hours after administration” value in [5] (50 mg./kg. p.o.) amounted to 24.2%; in [5] (75 mg./kg. p.o.), 25.7%; in data set [5] (100 mg./kg. p.o.) it was 37.7%. For the same molecule, the selectivity ratio came out at 6.7 in data set [8] and 12.4 in [9]. The “Inhibition of kaolin-induced oedema 2 hours after administration” value is reported as 20.5% in data set [6] (25 mg./kg. p.o.), 21.4% in data set [6] (50 mg./kg. p.o.), 24.8% in [6] (75 mg./kg. p.o.) and 47.8% in data set [6] (100 mg./kg. p.o.). The molecule also gave an LD50 in data set [2] of 620 mg/kg. For the same molecule, the figures for the “Percentage inhibition 1 hour after administration (serotonine-induced oedema)” value (“Percentage inhibition 1 hour” below) in [10] (50 mg./kg. p.o.) and in data set [10] (100 mg./kg. p.o.) were 22.4% and 57.8%, respectively. Besides, the “Prolongation of the sleep period in relation … %” value in data set [3] (25 mg./kg. p.o.) turned out to be 132.8%; in data set [3] (50 mg./kg. p.o.) it was 207.6%.
Regarding `COC(=O)CCC1CN2CCc3cc(OC)c(OC)cc3C2CC1=O` (stereo not drawn) [SCT-2, 2-Oxo-3-(β-methoxycarbonyl-ethyl)-9,10-dimethoxy-1,2,3,4,6,7-hexahydro-11bH-benzo(a)quinolizidine], the “Inhibition of carrageenin-induced oedema 1.5 hours after administration” value worked out at 14.3% in data set [5] (50 mg./kg. p.o.), 2.8% in data set [5] (75 mg./kg. p.o.) and 17.0% in data set [5] (100 mg./kg. p.o.). Further, the “Inhibition of kaolin-induced oedema 2 hours after administration” value in data set [6] (25 mg./kg. p.o.) amounted to 5.8%; in [6] (50 mg./kg. p.o.), 21.4%; in data set [6] (75 mg./kg. p.o.), 24.7%. For the same molecule, the “Percentage inhibition 1 hour” value in [10] (100 mg./kg. p.o.) stood at 16.0%. Also, the “Prolongation of the sleep period in relation … %” value in data set [3] (50 mg./kg. p.o.) turned out to be 28.3%. The “Prolongation of the reaction time, % (2 hours after administration)” value in data set [11] is given as 26.4%.
With `CCOc1cc2c(cc1OCC)C1CC(=O)C(CCC#N)CN1CC2` (stereo not drawn) [SCT-3, 2-Oxo-3-(β-cyano-ethyl)-9,10-diethoxy-1,2,3,4,6,7-hexahydro-11bH-benzo(a)quinolizidine], the figures for the Erosion in [4] (female) and in data set [4] (male) were 4/10 and 6/10, respectively. In addition, the Ulcer in data set [4] (female) was 0/10; in [4] (male), 1/10. In addition, the “Inhibition of carrageenin-induced oedema 1.5 hours after administration” value in data set [5] (25 mg./kg. p.o.) was 25.1%; in data set [5] (50 mg./kg. p.o.) it was 41.5%; in [5] (100 mg./kg. p.o.) it was 53.7%. Besides, the results for the selectivity ratio in [8] and in data set [9] were 19.8 and 15, respectively. In addition, the “Inhibition of kaolin-induced oedema 2 hours after administration” value in [6] (25 mg./kg. p.o.) stood at 17.3%; in data set [6] (50 mg./kg. p.o.) it was 19.4%; in data set [6] (75 mg./kg. p.o.), 48.9%; in data set [6] (100 mg./kg. p.o.), 45.9%. Besides, the LD50 in data set [2] was determined as 780 mg/kg. In addition, the “Percentage inhibition 1 hour” value came out at 36.2% in data set [10] (50 mg./kg. p.o.) and 47.0% in data set [10] (100 mg./kg. p.o.). The “Prolongation of the sleep period in relation … %” value in data set [3] (25 mg./kg. p.o.) is listed as 131.7%; in data set [3] (50 mg./kg. p.o.), 240.2%. The “Prolongation of the reaction time, % (2 hours after administration)” value in data set [11] amounted to 33.9%.
